The text below walks through data of patent US8927502B2, “Embedded chimeric peptide nucleic acids and uses thereof” (ICahn School of Medicine at Mount Sinai, priority 2010, dated 2015).

Like-named read-outs stand apart in the source and are kept apart here.

Test [1] has as its system human γ-globin gene in MBC-βYAC cells. The test is described as follows: γ-globin expression by quantitative RT-PCR in β-YAC mouse bone marrow cells. In kind it is cell-based.
Text: To test this, a line of mouse bone marrow cells engineered to carry a yeast artificial chromosome that contains the complete human β-like globin locus (β-YAC) was used.
After treatment, cells were harvested and mRNA was extracted for reverse transcriptase (RT)-quantitative polymerase chain reaction (qPCR) using two different sets of published primers that recognize sequences within the γ-globin gene.
Total RNA from β-YAC MBCs were isolated with a RNeasy micro kit (Qiagen) following the manufacturer's instructions. RNA concentrations were quantified using a Nanodrop. Reverse transcription of RNA was performed with Promega's Reverse Transcription System and expression levels were quantified using a Quantitect SYBR Green PCR kit from Qiagen in conjunction with an ABI PRISM 7900HT and SDS software [see Lohmann, F. & Bieker, J. J. supra] Q-PCR results for globin expression were normalized by 2−[(Ct γ−Ct β)−(Ct γ [no PNA]−Ct β [noPNA])][see Livak, K. J. & Schmittgen, T. D., Analysis of relative gene expression data using real-time quantitative PCR and the 2(−Delta Delta C(T)) Method. Methods 25, 402-408 (2001)] divided by the PNA incorporation efficiency (determined from the live cell image data). Each reaction was performed in triplicate.
The test system of test [2] is γ-globin promoter luciferase reporter. In kind it is cell-based, human. The protocol: The γ-globin reporter contained a 1.5 Kb Human HS2 fragment upstream of the −299 to +37 human γ-globin promoter in Promega's (Madison, Wis.) pGL2 Basic plasmid. [See Caterina, J. J., Donze, D., Sun, C. […] Nucleic Acids Res 22, 2383-2391 (1994).]
Transfection of K562 cells was performed using the DMRIE lipofection method (Gibco, Invitrogen, Carlsbad, Calif.). K562 cells were counted and 1×10^5 cells were resuspended in 0.1 mL OPTI-MEM in a 12-well plate (BD Falcon, Franklin Lakes, N.J.). Experiments were all done in triplicates. 1.5 ng Renilla plasmid (Promega Corporation. Madison, Wis.) and 0.5 μg reporter construct were added to each well. After 2 hours of transfection, PNAs were added to a final concentration of 10 μM. 2 hours later, 1 ml RPMI and a final concentration of 10% FBS were added to each well. This was followed by incubation at 37° C. for 36 hours.
36 hours after PNA addition, K562 cells were collected by centrifugation at 2500 rpm. Media was discarded and cells were washed once with 1×PBS and resuspended in 250 μL 1× passive lysis buffer (PLB) (Promega). Tubes that contained cells were put on a rocker platform for 10 minutes at room temperature. Cells were then centrifuged at 13000 rpm and resuspended in 200 μL 1×PLB, loaded on a 96 well plate and further analyzed with a Turner Biosystem Microplate Luminometer. […] Mol Cell Biol 27, 8547-8560 (2007).] Luciferase values were divided by the Renilla value from the same sample after it had been divided by 1000. To minimize the differences in between loading, each sample was loaded in three different wells and the average of three was calculated.

Test [3] has as its system PNA78 target sequence/minimal SV40 promoter luciferase reporter in K562 cells. The test is described as follows: Luciferase reporter with four repeats of PNA78 target sequence and minimal SV40 promoter in K562 cells. In kind it is cell-based, human.
Test [4] relates to PNA78 target sequence/minimal SV40 promoter luciferase reporter in 293T cells. The test is described as follows: Luciferase reporter with four repeats of PNA78 target sequence and minimal SV40 promoter in 293T cells. In kind it is cell-based.
For test [5], the system named is human γ-globin promoter DNA oligonucleotide (wild type or mutated target sequence). The settings on record: for binding of PNA to its target DNA oligo (bound/input): wild type vs mutant oligo, PNA 0-10 μM, 37° C. overnight. Here is the method:
FIG. 1 depicts in vitro target binding specificity of four PNAs designed to interact with the human γ-globin promoter. […] The relative location of known promoter elements within this region is also indicated. Orientation of the PNA molecule relative to the promoter sequence is shown above, with a lys at its 3′-end and a biotin molecule (circle) attached at the 5′-end. In FIG. 1(b), different concentrations of PNAs (0-10 μM) were incubated with a constant amount of radioactively labeled DNA oligonucleotide (10 nM) containing either the wild type (wt) or mutated (mut) target sequence followed by incubation with streptavidin Dynabeads and collection with a magnetic particle concentrator. Bound/input ratios were obtained after scintillation counter analysis. […] The A+G sequence ladder is shown in lane 1, along with the nucleotide sequence of the γ-globin promoter aligned on the left.
A novel assay was developed to monitor specific binding of PNA molecules to their cognate DNA site (FIG. 1(b)). 2 ng of ^32P-labelled double-stranded DNA oligonucleotide (designed at regions of the γ-promoter centered at each of the four PNA target sites) was incubated with various molar excess (0× to 1000×) of PNA at 37° C. overnight in a final volume of 15 uL with 10 mM Tris and 1 mM of EDTA. The resultant material was incubated with equal amount of Dynabeads M280-streptavidin (DYNAL biotech) for […] at 25° C. Beads had been prepared by washing twice with BW buffer (10 mM Tris, pH7.5, 1 mM EDTA, 2.0M NaCl). The beads were pulled down with a Dynal MPC-S magnetic particle concentrator and washed twice with BW buffer. Samples were finally suspended in 50 uL BW buffer, and radioactivity was counted for 10 minutes in a scintillation counter to yield the average counts per minute (cpm) taken for each sample, which was then divided by the cpm of the input (1 uL of the radio-labeled oligo).

The subject of test [6] is endogenous γ-globin promoter. The test is described as follows: Chromatin association assay in K562 cells (streptavidin bead pull-down, quantitative PCR). Format: cell-based, human. The following applies: 10 μM in K562 cells. The text has this: To determine whether PNA78 can interact with its target site in vivo, a modification of the chromatin immunoprecipitation assay was developed. […] Along with the “no addition” negative control, a variant of PNA78 that contain two point mutations (MUT PNA78) was synthesized and used it as an additional negative control along with a “TAT alone” control.
This assay incorporates elements of chromatin [see Siatecka, M., Xue, L. & Bieker, J. J., Sumoylation of EKLF promotes transcriptional repression and is involved in inhibition of megakaryopoiesis, Mol Cell Biol 27, 8547-8560 (2007)] and biotinylated protein [see Viens, A., Mechold, U., Lehrmann, H., Harel-Bellan, A. & Ogryzko, V., Use of protein biotinylation in vivo for chromatin immunoprecipitation. Anal Biochem 325, 68-76 (2004)] immunoprecipitation protocols. PNA 78/TAT or mutant (MUT) PNA 78/TAT were added to 10^7 K562 cells to a final concentration of 10 μM. After […], a portion of the cells were analyzed and quantified for PNA incorporation efficiency by confocal analysis of live cells (as above), and the rest were harvested and cross-linked with 0.4% formaldehyde (Fisher Scientific, F79-500) for 10 minutes in room temperature then quenched by addition of glycine in the final concentration of 0.125 M for another 10 minutes. […]
After 16 hours of incubation of K562 cells, any formed PNA-chromatin complex was cross-linked and cells were disrupted and chromatin was sheared by sonication. […] The DNA was purified for sequence identification by quantitative PCR. To more precisely quantitate the extent of PNA entry into the nucleus, a portion of the cells from each treatment was collected, stained with the DRAQ5 live-cell nuclear stain, attached to chamber-slides, and inspected under confocal microscopy to compare PNA and TAT nuclear entry efficiency.
One microliter of DNA was used in 20 μl of quantitative PCR reaction using a Quantitect SYBR Green PCR kit from Qiagen (Valenica, Calif.) and the presence of γ-globin promoter sequences was quantified with an ABI PRISM 7900HT and SDS software. […]

Test [7] concerns γ-globin promoter region −299 to +37. The settings on record: PNA 50 uM, overnight at 37° C.
Experimental: To further confirm the observation in the magnetic-pull down assay, permanganate (KMnO4) probing of the PNA78/DNA interaction in solution was carried out (FIG. 1(c)). […] Methods Mol Biol 208, 91-109 (2002)], 1 ng of a singly ^32P-end-labeled, gel purified RsaI/XhoI fragment derived from the p250 plasmid that contains the γ-globin promoter region −299 to +37 was incubated in a volume of 15 μL with a final concentration of 10 mM Tris and 1 mM EDTA for 30 minutes at 37° C. PNA was added at a final concentration of 50 uM for further incubation overnight at 37° C. 1 uL 20 mM KMnO4 was added to the reaction, and after 15 s 10 uL stop buffer (1.5 M sodium acetate, 1 M 2-mercaptoethanol, Ph 7.0) was added. 2.5× vol of 96% ethanol was added and the DNA collected by centrifugation at 13000 rpm for 15 minutes. The supernatant was removed and the DNA pellet dissolved in 100 uL 10% piperidine followed by incubation at 90° C. for 20 minutes. The lympholized DNA sample was resuspended in 8 μL FA buffer (80% deionized fomamide, 10 mM EDTA, 0.25% xylenecyanol FF, 0.25% bromphenol blue). DNA was denatured at 90° C. for 2 minutes, chilled on ice, and then electrophoresed on thin 10% polyacrylamide gels containing 7 M urea. The dried gel was then exposed for autoradiography.
Test [8] deals with γ-globin expression in human mobilized peripheral blood CD34+ cells. The settings on record: treated at end of day 2, harvested 16 hours later. The protocol:
(§1) K562 cells served as a positive control. FIG. 13(c) contains dot plots and histograms from toxicity analysis by flow cytometry of cultured CD34+ cells after PNA treatment.
(§2) Purified CD34+ cells were cultured, treated at the end of day 2 with the various PNA chimeras or with no PNA, and harvested 16 hours later for analysis.

Test [9] has as its system γ-globin protein in human peripheral blood CD34+ cells. The protocol: as §1, §2
For test [10], the system named is γ-globin protein in MBC-βYAC cells. The settings on record: not detectable in untreated cells.
Experimental: K562 cells were also stained and served as a positive control for γ-globin protein detection (arrowheads).
At 48 hours post-PNA treatment, 100K MBC-βYAC cells were collected and spun onto frosted slides (Fisher) in a Shandon Cytospin 2 centrifuge at 500 rpm for 5 minutes. All steps were carried out at room temperature except when indicated. Cells were fixed for 4 minutes in ice-cold acetone/methanol (1:1) on ice and rinsed twice with 2% BSA/PBS. Samples were then incubated with blocking solution (10% FCS, 0.05% NP40/PBS) for 30 minutes followed by a two-hour incubation with hemoglobin γ antibody (Santa Cruz Biotechnology, sc-21756) diluted 1:100 in blocking solution. Slides were washed 3× with 2% BSA, 0.05% NP40/PBS and then incubated with goat anti-mouse secondary antibody conjugated to Alexa 568 (Invitrogen) at a 1:50 dilution for one hour in a dark chamber. Slides were then washed 3× with 2% BSA/PBS with a final rinse in PBS and mounted with DAPI-containing Vectashield. DAPI and Alexa568 images were visualized on a Zeiss spinning disc confocal microscope (PerkinElmer).
Setting [11] is: wild type γ-promoter, 10 μM, 36 hours.

Turning to “Bio-OO-CGSDALDDFDLDML-O-TACTCTAAGACTATT-O-YGRKKRRQRRR [Bio-ATF/PNA78/TAT]”, the “ability to activate γ-globin expression” value in test [1] (biotin at the extreme 5′ end) is “precluded its ability to activate γ-globin expression”.

For “Bio-OO-DFDLDMLGDFDLDMLG-O-TACTCTAAGACTATT-O-YGRKKRRQRRR [VP2/PNA78/TAT]”, the “effect on activity of γ-globin luciferase reporter (superactivation)” value (“effect on activity” below) in test [2] (setting [11]) is reported as “little effect beyond that seen with PNA78/TAT”. The “luciferase activity increase compared to non-treated cells” value in test [3] is recorded as 2.3 fold. Besides, in test [4], the luciferase activity increase result is listed as “not observed at all”.

Regarding Biotin-OO-GAGTTTAGCCAGG-O-k [PNA150], the “binding of PNA to its target DNA oligo (bound/input)” value (shortened to “binding of PNA … (bound/input)”) in test [5] is recorded as “did not discriminate or bind well”.

As for Biotin-OO-GGCTATTGGTCAAGGC-k [PNA116], in test [5], the “binding to the mutant DNA target” value is recorded as “bound to the mutant DNA target to an unacceptable extent” and the “binding of PNA … (bound/input)” value is given as “bound their target DNA oligo in proportion to their input”.

In the case of “Biotin-OO-TACTATAAAACTATT-O-YGRKKRRQRRR [MUT PNA78/TAT]”, in test [6], the “interaction with target sequence within the γ-globin promoter (quantitative PCR of precipitated DNA)” value (“interaction” for short) is listed as “not higher than the ‘no addition’ control”.

“Biotin-OO-TACTCTAAGACTATT-O-PKKKRKV [PNA78/NLS]”: in test [2] (setting [11]), the “effect on activity” value was “mild”.

Consider “Biotin-OO-TACTCTAAGACTATT-O-YGRKKRRQRRR [PNA78/TAT]”, for which, in [6], the “interaction” value is “greater than the non-specific MUT PNA78 and TAT alone”. For the same substance, in [2], the “effect on activity” value was “stronger” and the “superactivation of γ-promoter reporter mutated at the PNA78 target site” value is on record as “negated its ability to be superactivated”.

Consider Biotin-OO-TACTCTAAGACTATT-O-k [PNA78], for which, in test [5], the “discrimination between wild type and mutant oligos” value is approximately 25 fold; the “binding of PNA … (bound/input)” value is given as “bound their target DNA oligo in proportion to their input”. Further, the “binding to target region within the γ-globin promoter fragment” value in test [7] is recorded as “binds specifically to its target region”.

Biotin-OO-TGTGGAACTGCTGAA-O-k [PNA7]: the “binding of PNA … (bound/input)” value in test [5] is “did not discriminate or bind well”.

On to “H2N-CGSDALDDFDLDML-Biotin-O-TACTCTAAGACTATT-O-YGRKKRRQRRR [ATF-Bio/PNA78/TAT]”, for which the “increase of γ-globin levels/expression” value in [1] (16 hours after PNA treatment, in comparison to cells treated with PNA78/TAT alone) stood at 7 fold. The “increase of γ-globin expression compared to untreated cells” value in test [8] is on record as approximately 5 fold. Also, the γ-globin protein accumulation result in [9] is “γ-globin protein accumulation solely in those cells”. In test [9] (visual analysis of ≧100 cells per field), the “cells positive for γ-globin protein” value stood at 22%. Moreover, the “γ-globin protein expression in the cytoplasm” value in [10] is on record as “levels approaching that seen in uninduced K562 cells”.

As to “YGRKKRRQRRR [TAT alone, reference compound]”, the “interaction” value in test [6] was “not higher than the ‘no addition’ control”. Moreover, the “effect on activity” value in test [2] (setting [11]) is reported as “no effect”.
